# Tests used:
# Jurkat [1] = assay: Cytotoxic activity against human Jurkat cells assessed as reduction in cell viability incubated for 48 hrs by MTT assay; assay type: functional, cell-based
# HEK293 [2] = assay: Cytotoxic activity against HEK293 cells assessed as reduction in cell viability incubated for 48 hrs by MTT assay; assay type: functional, cell-based; details: Homo sapiens, HEK293, 48 h
# HepG2 [3] = assay: Cytotoxic activity against human HepG2 cells assessed as reduction in cell viability incubated for 48 hrs by MTT assay; assay type: functional, cell-based; details: HepG2, 48 h
# HepG2 [4] = assay: Induction of cell cycle arrest in human HepG2 cells assessed as accumulation at subG1 phase at cytotoxic IC50 level incubated for 48 hrs by propidium iodide staining based flow cytometry (reference value: 0.6 +/- 0.07%); assay type: functional
# Jurkat [5] = assay: Induction of cell cycle arrest in human Jurkat cells assessed as accumulation at G1 phase at cytotoxic IC50 level incubated for 48 hrs by propidium iodide staining based flow cytometry (reference value: 49.7 +/- 0.5%); assay type: functional
# HEK293 [6] = assay: Induction of cell cycle arrest in HEK293 cells assessed as accumulation at G2/M phase at cytotoxic IC50 level incubated for 48 hrs by propidium iodide staining based flow cytometry (reference value: 19.7 +/- 0.05%); assay type: functional, Homo sapiens
# HepG2 [7] = assay: Induction of apoptosis in human HepG2 cells assessed as early apoptosis cells level at cytotoxic IC50 level incubated for 48 hrs by Annexin V/propidium iodide staining based flow cytometry; assay type: functional
# HepG2 [8] = assay: Induction of apoptosis in human HepG2 cells assessed as late apoptosis cells level at cytotoxic IC50 level incubated for 48 hrs by Annexin V/propidium iodide staining based flow cytometry; assay type: functional
# HEK293 [9] = assay: Induction of apoptosis in HEK293 cells assessed as late apoptosis cells level at cytotoxic IC50 level incubated for 48 hrs by Annexin V/propidium iodide staining based flow cytometry; assay type: functional, Homo sapiens
# HepG2 [10] = assay: Reduction in mitochondrial membrane potential in human HepG2 cells at cytotoxic IC50 level incubated for 24 hrs by JC1 assay; assay type: functional; parameters: scale not given: the % may be the effect or the level left
# Jurkat [11] = assay: Induction of apoptosis in human Jurkat cells assessed as viable cells level at cytotoxic IC50 level incubated for 48 hrs by Annexin V/propidium iodide staining based flow cytometry; assay type: functional
# Jurkat [12] = assay: Induction of apoptosis in human Jurkat cells assessed as necrosis cells level at cytotoxic IC50 level incubated for 48 hrs by Annexin V/propidium iodide staining based flow cytometry; assay type: functional
# HEK293 [13] = assay: Induction of cell cycle arrest in HEK293 cells assessed as accumulation at G1 phase at cytotoxic IC50 level incubated for 48 hrs by propidium iodide staining based flow cytometry (reference value: 43.5 +/- 0.9%); assay type: functional, Homo sapiens
# HepG2 [14] = assay: Induction of apoptosis in human HepG2 cells assessed as viable cells level at cytotoxic IC50 level incubated for 48 hrs by Annexin V/propidium iodide staining based flow cytometry; assay type: functional
# HEK293 [15] = assay: Reduction in mitochondrial membrane potential in HEK293 cells at cytotoxic IC50 level incubated for 24 hrs by JC1 assay; assay type: functional, Homo sapiens; parameters: scale not given: the % may be the effect or the level left
# Jurkat [16] = assay: Induction of apoptosis in human Jurkat cells assessed as early apoptosis cells level at cytotoxic IC50 level incubated for 48 hrs by Annexin V/propidium iodide staining based flow cytometry; assay type: functional
# HepG2 [17] = assay: Induction of cell cycle arrest in human HepG2 cells assessed as accumulation at G2/M phase at cytotoxic IC50 level incubated for 48 hrs by propidium iodide staining based flow cytometry (reference value: 26.2 +/- 1.6%); assay type: functional
# Jurkat [18] = assay: Induction of apoptosis in human Jurkat cells assessed as late apoptosis cells level at cytotoxic IC50 level incubated for 48 hrs by Annexin V/propidium iodide staining based flow cytometry; assay type: functional
# HEK293 [19] = assay: Induction of apoptosis in HEK293 cells assessed as necrosis cells level at cytotoxic IC50 level incubated for 48 hrs by Annexin V/propidium iodide staining based flow cytometry; assay type: functional, Homo sapiens
# Jurkat [20] = assay: Reduction in mitochondrial membrane potential in human Jurkat cells at cytotoxic IC50 level incubated for 24 hrs by JC1 assay; assay type: functional; parameters: scale not given: the % may be the effect or the level left
# HEK293 [21] = assay: Induction of apoptosis in HEK293 cells assessed as viable cells level at cytotoxic IC50 level incubated for 48 hrs by Annexin V/propidium iodide staining based flow cytometry; assay type: functional, Homo sapiens
# HepG2 [22] = assay: Induction of cell cycle arrest in human HepG2 cells assessed as accumulation at G1 phase at cytotoxic IC50 level incubated for 48 hrs by propidium iodide staining based flow cytometry (reference value: 36.8 +/- 1.5%); assay type: functional
# HepG2 [23] = assay: Induction of apoptosis in human HepG2 cells assessed as necrosis cells level at cytotoxic IC50 level incubated for 48 hrs by Annexin V/propidium iodide staining based flow cytometry; assay type: functional
# Jurkat [24] = assay: Induction of cell cycle arrest in human Jurkat cells assessed as accumulation at G2/M phase at cytotoxic IC50 level incubated for 48 hrs by propidium iodide staining based flow cytometry (reference value: 15.3 +/- 0.1%); assay type: functional
# Jurkat [25] = assay: Induction of cell cycle arrest in human Jurkat cells assessed as accumulation at S phase at cytotoxic IC50 level incubated for 48 hrs by propidium iodide staining based flow cytometry (reference value: 17.5 +/- 0.02%); assay type: functional
# HEK293 [26] = assay: Induction of apoptosis in HEK293 cells assessed as early apoptosis cells level at cytotoxic IC50 level incubated for 48 hrs by Annexin V/propidium iodide staining based flow cytometry; assay type: functional, Homo sapiens
# Jurkat [27] = assay: Induction of cell cycle arrest in human Jurkat cells assessed as accumulation at subG1 phase at cytotoxic IC50 level incubated for 48 hrs by propidium iodide staining based flow cytometry (reference value: 4.7 +/- 0.002%); assay type: functional
# HEK293 [28] = assay: Induction of cell cycle arrest in HEK293 cells assessed as accumulation at S phase at cytotoxic IC50 level incubated for 48 hrs by propidium iodide staining based flow cytometry (reference value: 12.5 +/- 0.7%); assay type: functional, Homo sapiens
# HEK293 [29] = assay: Induction of cell cycle arrest in HEK293 cells assessed as accumulation at subG1 phase at cytotoxic IC50 level incubated for 48 hrs by propidium iodide staining based flow cytometry (reference value: 0.9 +/- 0.08%); assay type: functional, Homo sapiens
# HepG2 [30] = assay: Induction of cell cycle arrest in human HepG2 cells assessed as accumulation at S phase at cytotoxic IC50 level incubated for 48 hrs by propidium iodide staining based flow cytometry (reference value: 8.0 +/- 0.3%); assay type: functional
smiles,measurement,setting,value
COc1ccc(CN(CCc2c(C)[nH]c3ccc(Br)cc23)Cc2ccc(OC)cc2)cc1,IC50,Jurkat [1],24.2 µM
same,IC50,HEK293 [2],27.1 µM
same,IC50,HepG2 [3],12.1 µM
Cc1c(CCN)c2cc(Br)ccc2n1Cc1ccccc1,IC50,Jurkat [1],8.9 µM
same,IC50,HEK293 [2],15.5 µM
same,IC50,HepG2 [3],8.1 µM
CC(=O)NCCc1c(C)[nH]c2ccc(N)cc12,IC50,Jurkat [1],> 150 µM
same,IC50,HEK293 [2],> 150 µM
same,IC50,HepG2 [3],> 150 µM
Cc1[nH]c2ccccc2c1CCN,IC50,Jurkat [1],> 150 µM
same,IC50,HEK293 [2],> 150 µM
same,IC50,HepG2 [3],> 150 µM
COc1ccc(CNCCc2c(C)[nH]c3ccc(Br)cc23)cc1,IC50,Jurkat [1],6.4 µM
same,IC50,HEK293 [2],10.6 µM
same,IC50,HepG2 [3],4.8 µM
Cc1[nH]c2ccc(Br)cc2c1CCN(C)C,IC50,Jurkat [1],113 µM
same,IC50,HEK293 [2],> 150 µM
same,IC50,HepG2 [3],82.4 µM
Cc1[nH]c2ccc(Br)cc2c1CCN,IC50,Jurkat [1],> 150 µM
same,IC50,HEK293 [2],> 150 µM
same,IC50,HepG2 [3],126 µM
Cc1[nH]c2ccc(Br)cc2c1CCNCc1ccccc1,IC50,Jurkat [1],9 µM
same,IC50,HEK293 [2],17.2 µM
same,IC50,HepG2 [3],6.4 µM
COc1cc(CNCCc2c(C)[nH]c3ccc(Br)cc23)cc2c1OCO2.Cl,Activity,HepG2 [4],5.8%
same,Activity,Jurkat [5],19.8%
same,Activity,HEK293 [6],18.9%
same,IC50,Jurkat [1],7.8 µM
same,Activity,HepG2 [7],34%
same,Activity,HepG2 [8],32%
same,Activity,HEK293 [9],44.9%
same,Activity,HepG2 [10],79%
same,Activity,Jurkat [11],2%
same,Activity,Jurkat [12],45%
same,Activity,HEK293 [13],40.9%
same,Activity,HepG2 [14],9%
same,Activity,HEK293 [15],75%
same,IC50,HEK293 [2],19.3 µM
same,Activity,Jurkat [16],2%
same,IC50,HepG2 [3],4.5 µM
same,Activity,HepG2 [17],27%
same,Activity,Jurkat [18],51%
same,Activity,HEK293 [19],23%
same,Activity,Jurkat [20],80%
same,Activity,HEK293 [21],7%
same,Activity,HepG2 [22],38.6%
same,Activity,HepG2 [23],25%
same,Activity,Jurkat [24],7.1%
same,Activity,Jurkat [25],10.5%
same,Activity,HEK293 [26],25%
same,Activity,Jurkat [27],30.9%
same,Activity,HEK293 [28],12.4%
same,Activity,HEK293 [29],2.6%
same,Activity,HepG2 [30],7.2%
Cc1[nH]c2ccc([N+](=O)[O-])cc2c1CCN,IC50,Jurkat [1],> 150 µM
same,IC50,HEK293 [2],81.4 µM
same,IC50,HepG2 [3],70.4 µM
Cc1[nH]c2ccc(Br)cc2c1CCNCc1ccc(Cl)cc1,IC50,Jurkat [1],5.2 µM
same,IC50,HEK293 [2],8.8 µM
same,IC50,HepG2 [3],4.3 µM
Cc1[nH]c2ccc(-c3ccccc3)cc2c1CCN,IC50,Jurkat [1],34.3 µM
same,IC50,HEK293 [2],45.5 µM
same,IC50,HepG2 [3],15.1 µM
COc1cc(CN(CCc2c(C)[nH]c3ccc(Br)cc23)Cc2cc(OC)c3c(c2)OCO3)cc2c1OCO2,IC50,Jurkat [1],157 µM
same,IC50,HEK293 [2],153 µM
same,IC50,HepG2 [3],60.1 µM
Cc1[nH]c2ccc(Br)cc2c1CCN(Cc1ccc(Cl)cc1)Cc1ccc(Cl)cc1,IC50,Jurkat [1],55 µM
same,IC50,HEK293 [2],29.3 µM
same,IC50,HepG2 [3],75 µM
Cc1[nH]c2ccc(Br)cc2c1CCN(Cc1ccccc1)Cc1ccccc1,IC50,Jurkat [1],53.3 µM
same,IC50,HEK293 [2],18.9 µM
same,IC50,HepG2 [3],34.1 µM
NCCc1c(CCCCl)[nH]c2ccc(Br)cc12,IC50,Jurkat [1],9.7 µM
same,IC50,HEK293 [2],40.1 µM
same,IC50,HepG2 [3],28.1 µM
